Values quoted from earlier work in patent US10828414B2, “Magnetic filtration devices and methods related thereto” (The Regents of the University of California, priority 2015, dated 2020).

Conditions: IAC, regardless of infused dose

- first pass hepatic clearance: 50-70%
SMILES: COc1cccc2c1C(=O)c1c(O)c3c(c(O)c1C2=O)C[C@@](O)(C(=O)CO)C[C@@H]3O[C@H]1C[C@H](N)[C@H](O)[C@H](C)O1 [Dox, doxorubicin]
